EPA's ToxValDB 9.5
“And” between values parts separate entries of the source, which are not always exact repeats. Equal entries are not always repeated. Each block holds one molecule with its values, some of them ahead of it.

What was measured:
Rattus norvegicus [1] = details: oral; for LOAEL: Fischer 344
Mus musculus = details: uterotrophic, Active
Rattus norvegicus [2] = details: uterotrophic, Active
Rattus norvegicus [3] = details: repeat dose other; oral
Rattus norvegicus [4] = details: oral, gavage
Oryctolagus sp. = details: acute; dermal
Rattus norvegicus [5] = details: oral; for LD50: acute
Rattus norvegicus [6] = details: subchronic
Rattus norvegicus [7] = details: subchronic, oral, diet, Fischer 344, Body Weight Changes: decrease + Food Consumption + Hematology: Hgb decrease, RBC decrease, MetHgb increase + Blood Chemistry: TP decrease, …
[8] = duration: 7 days, injection, subcutaneous
[9] = subchronic, duration: 3 months, diet, BOR/WISW (SPF Cpb)

SMILES: ClC=C(Cl)CCl [1,2,3-Trichloropropene]
NOAEL (Rattus norvegicus [1]; short-term, duration: 4 weeks, gavage, M/F, Crl:CD(SD), respiratory): 30 mg/kg-day

LEL (Mus musculus; [8]): 300 mg/kg-day
LEL (Mus musculus; duration: 7 days, oral): 1000 mg/kg-day
LEL (Rattus norvegicus [2]; duration: 3 days, injection, subcutaneous): 100 mg/kg-day and 200 mg/kg-day and 230 mg/kg-day
LEL (Rattus norvegicus [2]; duration: 5 days, oral): 100 mg/kg-day and 250 mg/kg-day
LEL (Rattus norvegicus [2]; duration: 90 days, oral, diet): 185 mg/kg-day
SMILES: O=C(c1ccc(O)cc1O)c1ccc(O)cc1O [2,2',4,4'-Tetrahydroxybenzophenone]

SMILES: Clc1cc2oc3c(Cl)c(Cl)c(Cl)cc3c2cc1Cl [2,3,4,7,8-Pentachlorodibenzofuran]
LOAEL (Rattus norvegicus [3]): 0.00016 mg/kg-day
NOAEL (Rattus norvegicus [3]): 1.6e-05 mg/kg-day
LOAEL (Rattus norvegicus [4]; chronic, duration: 105 weeks, F, Harlan Sprague-Dawley, hepatic, endocrine): 6e-06 mg/kg-day
NOAEL (Rattus norvegicus [4]; developmental, duration: 1 days, M/F, Wistar, developmental): 0.0005 mg/kg-day

LEL (Mus musculus; [8]): 300 mg/kg-day
LEL (Mus musculus; duration: 7 days, oral): 1000 mg/kg-day
LEL (Rattus norvegicus [2]; duration: 3 days, injection, intraperitoneal): 500 mg/kg-day
SMILES: O=C(c1ccccc1)c1ccc(O)cc1O [2,4-Dihydroxybenzophenone]

SMILES: Nc1cccc([N+](=O)[O-])c1 [3-Nitroaniline]
LOAEL (Rattus norvegicus [1]; short-term, duration: 28 days, gavage, M/F): 15 mg/kg-day

SMILES: CC(C)(C)CC(C)(C)c1ccc(O)cc1 [4-(1,1,3,3-Tetramethylbutyl)phenol]
LD50 (Oryctolagus sp.): > 2000 mg/kg
LD50 (Rattus norvegicus [5]): 2200 mg/kg
LD50 (Rattus norvegicus [5]; Sprague-Dawley): > 2000 mg/kg
NOAEL (Rattus norvegicus [5]; reproduction developmental, diet, Sprague-Dawley): ≥ 2000 ppm
NOAEL (Rattus norvegicus [5]; reproduction developmental, diet, Sprague-Dawley, generation: F0): 200 ppm
NOAEL (Rattus norvegicus [5]; reproduction developmental, diet, Sprague-Dawley, generation: F1): 200 ppm
LOAEL (Rattus norvegicus [5]; [9]): 28.8 mg/kg-day
NOAEL (Rattus norvegicus [5]; [9]): 2.88 mg/kg-day
LEL (Mus musculus; duration: 9 days, injection, subcutaneous): 50 mg/kg-day
LEL (Rattus norvegicus [2]; duration: 1 days, injection, subcutaneous): 200 mg/kg-day and 600 mg/kg-day
LEL (Rattus norvegicus [2]; duration: 2 days, injection, subcutaneous): 50 mg/kg-day
LEL (Rattus norvegicus [2]; duration: 14 days, injection, subcutaneous): 25 mg/kg-day

SMILES: CC(=O)CC(C)C [4-Methyl-2-pentanone]
NOAEL (Rattus norvegicus [3]): 25 mg/kg-day
NOAEL (Rattus norvegicus [6]; duration: 13 weeks, oral, gavage, Kidney: Increased absolute weight in females + Kidney: Increased relative weight in females + Kidney: Increased urinary protein levels in …): 250 mg/kg-day
NOEL (Rattus norvegicus [6]; duration: 90 days, inhalation, intermittent, Kidney: Effects + Liver: Increased weight): 205 mg/m3

SMILES: Cc1ccc([N+](=O)[O-])cc1 [4-Nitrotoluene]
NOEL (Rattus norvegicus [7]; F): < 44 mg/kg-day
NOEL (Rattus norvegicus [7]; M/F): < 60 mg/kg-day
LOAEL (Rattus norvegicus [1]; subchronic, duration: 13 weeks, diet, M, Immune): 42 mg/kg-day
LEL (Rattus norvegicus [2]; duration: 1 days, injection, intraperitoneal): 30 mg/kg-day

SMILES: Clc1cc(Cl)c(Cl)c(-c2cc(Cl)c(-c3cc(Cl)c(Cl)c(Cl)c3)c(Cl)c2Cl)c1 [Aroclor 5460]
NOAEL (Rattus norvegicus [1]; chronic, duration: 95 days, diet, M, albino): 7.13 mg/kg-day
